The source made the active and inactive calls.
Tests used:
[1] = Luminescence Cell-Based Dose Retest to Confirm Inhibitors of Cancer Stem Cells. [Related pubchem assays (depositor defined):AID2717, AID2721]; type: functional; conditions: Homo sapiens
[2] = cytotoxicity in HMLE control line with eGFP shRNA, dose response, counter-screen for HMLE_sh_ECad selective toxicity project, cell-based, HMLE_sh_eGFP, luminescence (AID 463074); type: functional, Homo sapiens;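 further: HMLE human mammary epithelial cells expressing control shRNA against eGFP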
Fibrinogen beta chain [3] = molecular target: T1, Fibrinogen beta chain (Homo sapiens, UniProt P02675); assay: Fluorescence polarization-based biochemical high throughput dose response assay to identify inhibitors that disrupt the binding of a cyclic peptide (Tn7) to the fibrin proteolytic product D-Dimer and fragment E complex [DD(E )].
T1 sequence (P02675 whole entry, the tested form may be a part): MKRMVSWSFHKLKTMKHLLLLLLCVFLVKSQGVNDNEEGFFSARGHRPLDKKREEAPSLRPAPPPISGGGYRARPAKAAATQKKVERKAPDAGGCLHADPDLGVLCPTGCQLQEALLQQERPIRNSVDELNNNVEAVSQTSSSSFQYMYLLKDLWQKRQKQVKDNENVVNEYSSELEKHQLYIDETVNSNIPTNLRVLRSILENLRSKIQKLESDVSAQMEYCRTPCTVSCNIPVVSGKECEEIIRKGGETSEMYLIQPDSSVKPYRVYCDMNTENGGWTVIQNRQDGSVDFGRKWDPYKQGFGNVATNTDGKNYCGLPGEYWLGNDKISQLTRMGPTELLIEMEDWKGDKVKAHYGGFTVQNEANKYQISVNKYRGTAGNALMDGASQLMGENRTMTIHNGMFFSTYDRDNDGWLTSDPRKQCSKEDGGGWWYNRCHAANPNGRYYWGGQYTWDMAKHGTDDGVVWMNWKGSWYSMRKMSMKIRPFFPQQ

Insulin-degrading enzyme [4] = molecular target: T2, Insulin-degrading enzyme (Homo sapiens, UniProt P14735); assay: activators of recombinant IDE enzyme, dose response, counter-screen for IDE activator project, biochemical, fluorescence polarization (AID 588681)
T2 sequence (P14735 whole entry): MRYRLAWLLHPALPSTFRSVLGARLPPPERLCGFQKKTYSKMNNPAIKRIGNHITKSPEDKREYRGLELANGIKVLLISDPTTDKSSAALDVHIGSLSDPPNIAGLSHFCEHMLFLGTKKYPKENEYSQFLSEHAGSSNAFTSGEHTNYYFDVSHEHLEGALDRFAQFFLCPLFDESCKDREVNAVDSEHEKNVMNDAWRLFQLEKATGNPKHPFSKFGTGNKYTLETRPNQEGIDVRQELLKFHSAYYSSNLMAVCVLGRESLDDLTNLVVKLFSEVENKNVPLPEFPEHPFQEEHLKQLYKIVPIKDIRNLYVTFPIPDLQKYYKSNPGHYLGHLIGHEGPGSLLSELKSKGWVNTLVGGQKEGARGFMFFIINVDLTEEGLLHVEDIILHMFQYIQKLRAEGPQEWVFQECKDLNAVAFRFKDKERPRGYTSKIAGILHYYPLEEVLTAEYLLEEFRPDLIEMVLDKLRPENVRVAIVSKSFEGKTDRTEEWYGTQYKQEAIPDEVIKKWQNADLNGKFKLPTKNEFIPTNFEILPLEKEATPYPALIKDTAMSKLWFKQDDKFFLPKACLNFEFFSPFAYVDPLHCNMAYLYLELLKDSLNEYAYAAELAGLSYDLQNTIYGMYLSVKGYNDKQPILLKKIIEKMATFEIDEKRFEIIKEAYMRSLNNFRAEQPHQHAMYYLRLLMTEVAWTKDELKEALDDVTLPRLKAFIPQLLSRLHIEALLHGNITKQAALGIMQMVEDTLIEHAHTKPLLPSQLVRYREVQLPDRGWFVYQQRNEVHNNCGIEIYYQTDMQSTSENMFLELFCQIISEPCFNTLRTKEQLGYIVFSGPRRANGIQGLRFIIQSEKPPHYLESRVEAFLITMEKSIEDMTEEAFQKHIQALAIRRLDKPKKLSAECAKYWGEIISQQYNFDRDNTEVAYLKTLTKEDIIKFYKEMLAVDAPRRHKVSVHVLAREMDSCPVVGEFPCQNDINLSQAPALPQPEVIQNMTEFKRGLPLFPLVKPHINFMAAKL

HEK293 [5] = assay: optical interference in Abeta FP readout, dose response, artefact control for IDE activator project, biochemical, fluorescence polarization (AID 588442); type: functional, cell-based; conditions: Homo sapiens
Insulin-degrading enzyme [6] = molecular target: T2, Insulin-degrading enzyme; assay: activators of endogenous IDE in HEK cells, dose response, cell-based, fluorescence polarization (AID 588439); type: functional
Fibrinogen beta chain [7] = molecular target: T1, Fibrinogen beta chain; assay: Fluorescence polarization-based biochemical high throughput dose response assay to identify inhibitors that disrupt the binding of a cyclic peptide (Tn6) to the fibrin proteolytic product D-Dimer and fragment E complex [DD(E )].
Troponin, cardiac muscle = Troponin, cardiac muscle (Homo sapiens, UniProt P19429+P45379+P63316); assay: Fluorescence-based biochemical high throughput dose response assay for activators of the calcium sensitivity of cardiac Regulated Thin Filaments (RTF). [Related pubchem assays (depositor defined):AID493008, AID493018, AID504382, AID504383]; type: protein-complex assay
HeLa = assay: HeLa cell cytotoxicity, dose response, cytotoxicity control, 24 h, cherry-picked samples (AID 504726); type: functional, cell-based; conditions: Homo sapiens;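 further: potency for cytotoxicity as loss of luminescence signal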
HEK293 [8] = assay: HEK cell cytotoxicity by LDH release, dose response, cytotoxicity control for IDE activator project, fluorescence, HEK cells (AID 588440); type: functional, cell-based; conditions: Homo sapiens;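 further: cytotoxicity by LDH release measuring loss of membrane integrity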
ORF 73 = ORF 73 (Human herpesvirus 8, UniProt O40947); assay: inhibitors of C-LANA binding to LBS DNA, dose response, biochemical, fluorescence polarization, cherry-picked samples (AID 504725); set-up: species or system Human gammaherpesvirus 8;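 further: fluorescence polarization of a labeled DNA duplex reporting LANA DNA binding; potency is for inhibitors that block LANA binding to the DNA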
Chain of ORF 73 (O40947 whole entry): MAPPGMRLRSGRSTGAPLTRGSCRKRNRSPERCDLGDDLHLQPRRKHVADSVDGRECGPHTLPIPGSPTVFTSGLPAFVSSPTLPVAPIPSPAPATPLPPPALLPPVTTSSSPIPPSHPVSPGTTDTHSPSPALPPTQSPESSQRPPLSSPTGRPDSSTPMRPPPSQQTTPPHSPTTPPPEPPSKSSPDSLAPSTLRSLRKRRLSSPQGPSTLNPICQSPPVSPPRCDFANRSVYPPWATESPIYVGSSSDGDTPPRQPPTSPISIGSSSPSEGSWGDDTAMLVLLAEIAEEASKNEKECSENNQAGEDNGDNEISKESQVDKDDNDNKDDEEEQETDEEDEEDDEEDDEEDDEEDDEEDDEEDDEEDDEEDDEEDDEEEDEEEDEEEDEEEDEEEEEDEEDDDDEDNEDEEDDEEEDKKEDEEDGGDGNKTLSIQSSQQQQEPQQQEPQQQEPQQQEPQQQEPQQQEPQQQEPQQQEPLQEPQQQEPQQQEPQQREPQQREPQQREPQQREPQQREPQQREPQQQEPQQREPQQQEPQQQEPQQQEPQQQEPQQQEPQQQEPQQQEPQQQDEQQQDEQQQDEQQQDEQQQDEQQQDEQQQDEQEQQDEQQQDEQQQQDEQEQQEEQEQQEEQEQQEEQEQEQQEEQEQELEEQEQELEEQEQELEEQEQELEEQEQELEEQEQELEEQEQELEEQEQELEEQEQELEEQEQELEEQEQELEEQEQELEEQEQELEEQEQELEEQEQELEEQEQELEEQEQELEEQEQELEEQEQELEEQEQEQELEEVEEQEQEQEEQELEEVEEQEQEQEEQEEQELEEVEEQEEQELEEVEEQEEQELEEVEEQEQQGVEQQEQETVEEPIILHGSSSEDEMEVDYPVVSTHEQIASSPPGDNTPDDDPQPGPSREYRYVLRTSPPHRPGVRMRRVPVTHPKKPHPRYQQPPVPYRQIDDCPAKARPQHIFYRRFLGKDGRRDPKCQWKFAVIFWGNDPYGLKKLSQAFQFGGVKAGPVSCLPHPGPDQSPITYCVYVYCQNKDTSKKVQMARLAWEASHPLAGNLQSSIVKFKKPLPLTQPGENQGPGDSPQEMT

Keap1/Nrf2 = Keap1/Nrf2 (Homo sapiens, UniProt Q14145); assay: Keap1-Nrf2 protein-protein interaction inhibitors, dose response, biochemical, fluorescence polarization, cherry-picked samples (AID 588683)
Chain of Keap1/Nrf2 (Q16236 whole entry): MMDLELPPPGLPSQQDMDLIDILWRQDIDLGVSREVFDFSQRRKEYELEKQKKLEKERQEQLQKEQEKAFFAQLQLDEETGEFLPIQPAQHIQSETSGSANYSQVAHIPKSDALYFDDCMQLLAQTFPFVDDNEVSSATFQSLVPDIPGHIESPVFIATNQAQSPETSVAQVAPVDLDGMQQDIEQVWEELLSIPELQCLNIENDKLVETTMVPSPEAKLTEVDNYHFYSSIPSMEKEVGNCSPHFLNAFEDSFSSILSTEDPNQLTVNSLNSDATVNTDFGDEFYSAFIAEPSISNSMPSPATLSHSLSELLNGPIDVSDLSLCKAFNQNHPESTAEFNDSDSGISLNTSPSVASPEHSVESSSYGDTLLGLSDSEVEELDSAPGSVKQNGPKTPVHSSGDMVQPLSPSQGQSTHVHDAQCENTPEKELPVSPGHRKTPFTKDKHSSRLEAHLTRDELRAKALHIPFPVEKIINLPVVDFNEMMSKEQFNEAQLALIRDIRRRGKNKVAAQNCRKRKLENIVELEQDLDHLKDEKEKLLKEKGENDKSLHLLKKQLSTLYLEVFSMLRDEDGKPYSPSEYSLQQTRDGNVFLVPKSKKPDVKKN
Chain of Keap1/Nrf2 (Q14145 whole entry): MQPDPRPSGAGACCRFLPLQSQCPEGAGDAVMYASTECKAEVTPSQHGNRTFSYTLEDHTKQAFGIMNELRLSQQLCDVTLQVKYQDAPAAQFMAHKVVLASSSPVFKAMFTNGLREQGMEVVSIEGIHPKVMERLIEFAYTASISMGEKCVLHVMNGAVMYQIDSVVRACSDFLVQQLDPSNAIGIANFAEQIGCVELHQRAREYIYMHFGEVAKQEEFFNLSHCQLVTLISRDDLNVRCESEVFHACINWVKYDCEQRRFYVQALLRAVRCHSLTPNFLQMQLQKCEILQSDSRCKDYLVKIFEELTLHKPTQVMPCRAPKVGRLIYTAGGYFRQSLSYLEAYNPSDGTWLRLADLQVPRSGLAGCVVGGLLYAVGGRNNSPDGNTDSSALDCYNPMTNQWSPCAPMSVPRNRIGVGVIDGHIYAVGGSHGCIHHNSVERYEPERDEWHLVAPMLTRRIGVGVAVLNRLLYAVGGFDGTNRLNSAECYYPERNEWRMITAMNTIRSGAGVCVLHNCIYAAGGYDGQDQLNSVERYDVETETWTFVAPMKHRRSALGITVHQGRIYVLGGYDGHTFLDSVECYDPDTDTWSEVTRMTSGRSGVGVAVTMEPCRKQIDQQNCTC

[9] = growth induction of Burl-1 ts yeast mutant, dose response, counter-screen for SUMOylation pathway inhibitor project, whole organism, S. cerevisiae, luminescence (AID 463199); type: functional
[10] = molecular target: 72 kDa type IV collagenase (Homo sapiens, UniProt P08253); assay: Dose Response validation of uHTS RPN11 inhibitor hits using a MMP-2 Fluorescence assay.; type: functional
Chain of 72 kDa type IV collagenase (P08253 whole entry): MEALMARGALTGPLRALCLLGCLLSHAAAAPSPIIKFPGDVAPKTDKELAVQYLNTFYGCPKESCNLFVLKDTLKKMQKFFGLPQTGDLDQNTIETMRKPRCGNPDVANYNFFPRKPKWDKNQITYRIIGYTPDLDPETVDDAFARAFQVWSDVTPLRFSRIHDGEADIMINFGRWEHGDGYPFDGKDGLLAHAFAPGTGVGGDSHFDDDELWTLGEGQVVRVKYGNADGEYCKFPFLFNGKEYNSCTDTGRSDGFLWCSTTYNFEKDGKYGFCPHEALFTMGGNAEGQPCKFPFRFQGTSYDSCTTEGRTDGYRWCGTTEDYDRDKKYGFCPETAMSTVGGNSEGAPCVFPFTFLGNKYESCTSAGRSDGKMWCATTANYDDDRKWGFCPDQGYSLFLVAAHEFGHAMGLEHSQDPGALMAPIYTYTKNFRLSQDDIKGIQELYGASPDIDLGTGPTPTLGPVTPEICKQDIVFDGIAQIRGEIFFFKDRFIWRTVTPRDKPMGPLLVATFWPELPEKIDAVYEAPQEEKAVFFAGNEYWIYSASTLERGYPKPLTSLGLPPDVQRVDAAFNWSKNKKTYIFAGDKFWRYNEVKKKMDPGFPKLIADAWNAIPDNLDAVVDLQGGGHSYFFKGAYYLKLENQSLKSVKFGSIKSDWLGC

[11] = molecular target: T3, Dual specificity protein phosphatase 6 (Rattus norvegicus, UniProt Q64346); assay: SAR analysis of inhibitors of MKP-3 - Set 2. [Related pubchem assays (depositor defined):AID1055, AID1661, AID425, AID553, AID566]; type: functional
T3 sequence (Q64346 whole entry): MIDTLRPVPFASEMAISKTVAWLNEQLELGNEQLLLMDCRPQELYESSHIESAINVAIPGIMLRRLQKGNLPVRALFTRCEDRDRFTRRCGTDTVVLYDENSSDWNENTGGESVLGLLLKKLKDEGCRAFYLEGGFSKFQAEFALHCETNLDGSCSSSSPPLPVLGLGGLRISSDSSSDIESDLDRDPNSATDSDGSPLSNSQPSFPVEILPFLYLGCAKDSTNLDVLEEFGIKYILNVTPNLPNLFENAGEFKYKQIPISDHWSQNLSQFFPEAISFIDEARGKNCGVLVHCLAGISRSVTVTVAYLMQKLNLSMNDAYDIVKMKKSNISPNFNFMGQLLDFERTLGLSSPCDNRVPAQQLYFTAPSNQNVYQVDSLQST

[12] = molecular target: T4, Dual specificity protein phosphatase 3 (Homo sapiens, UniProt P51452); assay: SAR VHR1 absorbance Assay for In Vitro dose response studies. [Related pubchem assays (depositor defined):AID1654, AID1661, AID1878, AID1992, AID2004]
T4 sequence (P51452 whole entry): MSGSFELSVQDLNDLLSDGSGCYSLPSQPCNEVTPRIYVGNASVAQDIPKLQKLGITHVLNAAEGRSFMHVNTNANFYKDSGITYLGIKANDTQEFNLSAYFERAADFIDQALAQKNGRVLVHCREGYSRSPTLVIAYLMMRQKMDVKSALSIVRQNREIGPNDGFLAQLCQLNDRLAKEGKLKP

[13] = molecular target: 26S proteasome non-ATPase regulatory subunit 14 (Homo sapiens, UniProt O00487); assay: inhibition of proteasome subunit RPN11 – biochemical, fluorescence polarization, uHTS hits, confirmation (AID 602368); type: functional
Chain of 26S proteasome non-ATPase regulatory subunit 14 (O00487 whole entry): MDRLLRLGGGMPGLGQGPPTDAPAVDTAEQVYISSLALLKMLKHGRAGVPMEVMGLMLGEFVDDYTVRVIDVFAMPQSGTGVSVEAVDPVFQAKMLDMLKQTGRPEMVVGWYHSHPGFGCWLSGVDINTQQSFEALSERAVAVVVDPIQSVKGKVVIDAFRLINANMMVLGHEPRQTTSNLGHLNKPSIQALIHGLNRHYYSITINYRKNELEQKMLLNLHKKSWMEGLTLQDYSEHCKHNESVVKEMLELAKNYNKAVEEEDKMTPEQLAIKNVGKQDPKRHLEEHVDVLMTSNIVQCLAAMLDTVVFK

[14] = molecular target: T4, Dual specificity protein phosphatase 3; assay: SAR VHR1 Fluorescent Assay for In Vitro dose response studies Set 2. [Related pubchem assays (depositor defined):AID1654, AID1661, AID1878]; type: functional
Prothrombin = Prothrombin (Bos taurus, UniProt P00735); assay: thrombin inhibition, dose response, biochemical, fluorescence polarization, uHTS hits (AID 602369); type: functional
[15] = molecular target: T3, Dual specificity protein phosphatase 6; assay: MKP-3 phosphatase inhibitors, primary screen, biochemical, rat enzyme, in vitro (AID 425)
[16] = molecular target: T4, Dual specificity protein phosphatase 3; assay: VHR1 phosphatase inhibitors, biochemical (AID 1878)
[17] = molecular target: T4, Dual specificity protein phosphatase 3; assay: VHR1 phosphatase inhibitors, primary screen, biochemical, absorbance, uHTS (AID 1654)
[18] = molecular target: T5, Tyrosine-protein phosphatase non-receptor type 7 (Homo sapiens, UniProt P35236); assay: redox-dependent HePTP inhibition, mechanism study, biochemical, fluorescence (AID 2068); type: functional
T5 sequence (P35236 whole entry): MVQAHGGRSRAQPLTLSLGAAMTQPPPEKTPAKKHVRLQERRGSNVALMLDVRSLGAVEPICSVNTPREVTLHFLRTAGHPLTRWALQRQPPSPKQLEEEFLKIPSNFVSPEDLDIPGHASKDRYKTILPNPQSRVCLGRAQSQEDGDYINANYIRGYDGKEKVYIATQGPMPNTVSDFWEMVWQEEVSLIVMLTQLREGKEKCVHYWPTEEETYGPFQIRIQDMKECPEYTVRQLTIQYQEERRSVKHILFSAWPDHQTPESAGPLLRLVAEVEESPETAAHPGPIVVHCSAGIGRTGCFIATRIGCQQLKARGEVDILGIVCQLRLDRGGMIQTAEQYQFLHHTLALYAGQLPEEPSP

[19] = molecular target: T4, Dual specificity protein phosphatase 3; assay: SAR VHR1 Fluorescent Assay for In Vitro dose response studies. [Related pubchem assays (depositor defined):AID1654, AID1661, AID1878, AID1992, AID2004, AID2070, AID2085]; type: functional
[20] = molecular target: T5, Tyrosine-protein phosphatase non-receptor type 7; assay: SAR analysis of chemical inhibitors of HePTP using a Fluorescent assay - Set 2. [Related pubchem assays (depositor defined):AID1059, AID1077, AID1661, AID2085, AID521]; type: functional
[21] = molecular target: T3, Dual specificity protein phosphatase 6; type: functional

With `O=C(Nc1ccccc1N1CCCC1)c1cccc(-c2cc3ccccc3oc2=O)c1` the AC50 [1] was 1.88 µM (active) and the AC50 [2] was 41.2 µM (active).

For `COc1ccc2ccccc2c1C(O)c1nccn1C` (stereo unspecified), the IC50 (Fibrinogen beta chain [3]) was > 83.3 µM (inactive), the EC50 (Insulin-degrading enzyme [4]) was > 54.7 µM (inactive) and the EC50 (HEK293 [5]) was > 54.7 µM (inactive). The EC50 (Insulin-degrading enzyme [6]) was > 54.7 µM (inactive), the IC50 (Fibrinogen beta chain [7]) was 13.1 µM (inactive) and the EC50 (Troponin, cardiac muscle) was 7.99 µM (active). For the same molecule, the AC50 (HeLa) was 297 µM (active), the IC50 (HEK293 [8]) was > 89.2 µM (inactive) and the AC50 (ORF 73) was 3.41 µM (active). The AC50 (Keap1/Nrf2) was 1.45 µM (active).

With `CC1CCN(CCCCOc2cccc(C(C)C)c2)CC1` the AC50 [9] was 68.4 µM (active).

For `O=C(O)c1ccc(NC(=S)NC(=O)c2ccc(-c3ccc(Br)cc3)o2)cc1`, the IC50 [10] was 3.68 µM (active), the IC50 [11] was > 100 µM (inactive) and the IC50 [12] was 3.35 µM (active). The IC50 [13] was 15.2 µM (active), the IC50 [14] was 0.226 µM (active) and the IC50 (Prothrombin) was 60.7 µM (active). The IC50 [15] was 76.7 µM (active), the IC50 [16] was 1.88 µM (active) and the IC50 [17] was 6.72 µM (active). The IC50 [18] was 0.227 µM (active), the IC50 [19] was 3.63 µM (active) and the IC50 [20] was 0.314 µM (active). The IC50 [21] was 55.8 µM (active).

From ChEMBL document CHEMBL1201862, “PubChem BioAssay data set” (2004)
